Tests used:
Assay type in all cases: biochemical
p110β/p85α = p110β/p85α (Homo sapiens, UniProt P42338); experiment: Transcreener KINASE Assay, kinase inhibition of p110β/p85α; details: for PI3Kβ IH % @ 1 uM: 1 uM test compound; for IC50: read-out: PI3Kβ IC50
How it was run: (§1)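 ADP production was read by fluorescence polarization immunoassay (60 min detection step) after an 80 min room-temperature reaction of p110/p85α enzyme, compound in 2% DMSO, and PIP2/ATP solution (30 uM/10 uM as added) in HEPES buffer with MgCl2 and DTT. IC50s came from inhibition versus the DMSO control.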

p110γ = p110γ (Homo sapiens, UniProt P48736); experiment: Transcreener KINASE Assay, kinase inhibition of p110γ; details: for PI3Kγ IH % @ 1 uM: 1 uM test compound; for IC50: read-out: PI3Kγ IC50
Sequence of p110γ (P48736 whole entry, canonical isoform): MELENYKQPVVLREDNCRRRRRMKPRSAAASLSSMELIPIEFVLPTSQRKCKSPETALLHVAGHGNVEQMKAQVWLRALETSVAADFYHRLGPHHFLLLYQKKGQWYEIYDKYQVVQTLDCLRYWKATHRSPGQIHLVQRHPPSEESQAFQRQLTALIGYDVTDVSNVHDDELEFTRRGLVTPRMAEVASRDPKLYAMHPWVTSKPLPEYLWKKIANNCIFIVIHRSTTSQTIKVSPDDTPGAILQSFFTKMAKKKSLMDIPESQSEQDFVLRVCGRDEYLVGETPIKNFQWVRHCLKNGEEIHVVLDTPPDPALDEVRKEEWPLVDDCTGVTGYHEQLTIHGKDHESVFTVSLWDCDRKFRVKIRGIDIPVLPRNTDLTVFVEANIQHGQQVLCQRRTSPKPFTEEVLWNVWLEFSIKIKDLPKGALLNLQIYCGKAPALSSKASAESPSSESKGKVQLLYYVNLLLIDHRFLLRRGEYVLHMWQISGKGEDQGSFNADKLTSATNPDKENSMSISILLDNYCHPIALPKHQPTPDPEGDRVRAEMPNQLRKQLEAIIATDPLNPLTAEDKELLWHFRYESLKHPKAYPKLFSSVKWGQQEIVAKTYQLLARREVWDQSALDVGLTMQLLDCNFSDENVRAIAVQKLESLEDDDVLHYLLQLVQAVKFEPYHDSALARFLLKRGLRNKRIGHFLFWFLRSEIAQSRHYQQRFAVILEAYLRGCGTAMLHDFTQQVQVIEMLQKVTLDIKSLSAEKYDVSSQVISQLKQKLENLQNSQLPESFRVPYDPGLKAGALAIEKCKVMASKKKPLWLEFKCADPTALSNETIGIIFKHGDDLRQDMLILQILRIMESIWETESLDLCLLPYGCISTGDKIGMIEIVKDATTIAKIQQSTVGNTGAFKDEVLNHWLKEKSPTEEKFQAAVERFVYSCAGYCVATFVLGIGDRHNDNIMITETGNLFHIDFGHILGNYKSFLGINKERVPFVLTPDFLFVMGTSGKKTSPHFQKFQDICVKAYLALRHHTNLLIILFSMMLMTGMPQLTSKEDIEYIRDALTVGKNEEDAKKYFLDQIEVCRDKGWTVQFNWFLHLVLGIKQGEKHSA
How it was run: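 Recombinant PI3K isoforms (p85α complexes or p110γ alone) reacted 80 min at room temperature, then ADP detection mix added for 60 min. ADP formation read by far-red competitive fluorescence polarization immunoassay; IC50 by curve fitting.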

p110δ/p85α = p110δ/p85α (Homo sapiens, UniProt O00329); experiment: Transcreener KINASE Assay, kinase inhibition of p110δ/p85α; details: for PI3Kδ IH % @ 1 uM: 1 uM test compound; for IC50: read-out: PI3Kδ IC50
Sequence of p110δ/p85α (O00329 whole entry): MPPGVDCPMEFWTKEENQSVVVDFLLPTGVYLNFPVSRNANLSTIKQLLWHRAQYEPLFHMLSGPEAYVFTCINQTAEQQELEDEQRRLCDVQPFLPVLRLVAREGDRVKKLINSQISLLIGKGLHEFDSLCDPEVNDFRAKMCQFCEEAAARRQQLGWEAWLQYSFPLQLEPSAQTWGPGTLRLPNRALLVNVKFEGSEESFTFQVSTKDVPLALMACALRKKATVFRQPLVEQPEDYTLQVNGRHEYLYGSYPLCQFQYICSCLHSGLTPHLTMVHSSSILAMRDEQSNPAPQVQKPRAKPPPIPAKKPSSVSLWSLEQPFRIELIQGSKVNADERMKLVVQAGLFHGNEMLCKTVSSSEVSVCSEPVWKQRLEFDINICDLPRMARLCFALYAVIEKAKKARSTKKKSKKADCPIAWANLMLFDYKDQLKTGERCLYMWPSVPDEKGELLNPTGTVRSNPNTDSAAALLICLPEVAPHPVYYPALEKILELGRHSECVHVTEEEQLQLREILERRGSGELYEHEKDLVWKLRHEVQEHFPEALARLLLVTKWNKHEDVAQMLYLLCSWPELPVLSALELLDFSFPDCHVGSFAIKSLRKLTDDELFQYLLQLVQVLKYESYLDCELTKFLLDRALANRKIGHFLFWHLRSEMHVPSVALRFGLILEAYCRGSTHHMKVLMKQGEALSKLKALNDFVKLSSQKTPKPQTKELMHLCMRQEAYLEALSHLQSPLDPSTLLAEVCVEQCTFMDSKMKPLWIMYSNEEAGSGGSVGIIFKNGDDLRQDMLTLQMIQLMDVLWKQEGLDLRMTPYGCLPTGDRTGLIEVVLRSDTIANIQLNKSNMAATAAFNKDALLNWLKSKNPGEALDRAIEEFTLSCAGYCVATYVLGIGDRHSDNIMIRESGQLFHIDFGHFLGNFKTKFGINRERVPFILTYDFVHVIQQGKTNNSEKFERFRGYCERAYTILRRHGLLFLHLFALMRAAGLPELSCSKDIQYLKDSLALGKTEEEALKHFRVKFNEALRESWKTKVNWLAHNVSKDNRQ
Sequence of p110δ/p85α (P27986 whole entry partner): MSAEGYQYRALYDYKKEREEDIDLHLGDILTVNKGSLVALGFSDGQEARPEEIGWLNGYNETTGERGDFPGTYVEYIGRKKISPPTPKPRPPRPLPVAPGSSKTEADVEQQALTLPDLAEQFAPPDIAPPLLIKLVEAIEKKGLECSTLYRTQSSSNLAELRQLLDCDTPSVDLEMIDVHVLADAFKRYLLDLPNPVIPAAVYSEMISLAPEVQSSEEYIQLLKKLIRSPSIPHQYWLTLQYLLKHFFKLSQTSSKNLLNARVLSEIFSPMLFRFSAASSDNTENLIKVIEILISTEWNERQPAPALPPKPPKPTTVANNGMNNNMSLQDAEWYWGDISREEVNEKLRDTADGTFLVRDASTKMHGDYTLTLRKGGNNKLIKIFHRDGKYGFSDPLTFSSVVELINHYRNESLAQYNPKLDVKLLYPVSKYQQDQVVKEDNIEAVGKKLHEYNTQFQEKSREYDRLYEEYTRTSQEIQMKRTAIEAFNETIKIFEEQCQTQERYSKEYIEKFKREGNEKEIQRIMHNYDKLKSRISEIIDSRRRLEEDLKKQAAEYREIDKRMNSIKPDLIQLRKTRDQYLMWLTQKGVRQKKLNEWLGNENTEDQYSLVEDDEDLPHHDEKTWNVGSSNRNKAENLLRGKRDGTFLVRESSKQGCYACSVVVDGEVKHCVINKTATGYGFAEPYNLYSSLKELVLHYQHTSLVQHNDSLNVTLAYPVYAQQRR
How it was run: as §1

Sequence of p110β/p85α (P42338 whole entry): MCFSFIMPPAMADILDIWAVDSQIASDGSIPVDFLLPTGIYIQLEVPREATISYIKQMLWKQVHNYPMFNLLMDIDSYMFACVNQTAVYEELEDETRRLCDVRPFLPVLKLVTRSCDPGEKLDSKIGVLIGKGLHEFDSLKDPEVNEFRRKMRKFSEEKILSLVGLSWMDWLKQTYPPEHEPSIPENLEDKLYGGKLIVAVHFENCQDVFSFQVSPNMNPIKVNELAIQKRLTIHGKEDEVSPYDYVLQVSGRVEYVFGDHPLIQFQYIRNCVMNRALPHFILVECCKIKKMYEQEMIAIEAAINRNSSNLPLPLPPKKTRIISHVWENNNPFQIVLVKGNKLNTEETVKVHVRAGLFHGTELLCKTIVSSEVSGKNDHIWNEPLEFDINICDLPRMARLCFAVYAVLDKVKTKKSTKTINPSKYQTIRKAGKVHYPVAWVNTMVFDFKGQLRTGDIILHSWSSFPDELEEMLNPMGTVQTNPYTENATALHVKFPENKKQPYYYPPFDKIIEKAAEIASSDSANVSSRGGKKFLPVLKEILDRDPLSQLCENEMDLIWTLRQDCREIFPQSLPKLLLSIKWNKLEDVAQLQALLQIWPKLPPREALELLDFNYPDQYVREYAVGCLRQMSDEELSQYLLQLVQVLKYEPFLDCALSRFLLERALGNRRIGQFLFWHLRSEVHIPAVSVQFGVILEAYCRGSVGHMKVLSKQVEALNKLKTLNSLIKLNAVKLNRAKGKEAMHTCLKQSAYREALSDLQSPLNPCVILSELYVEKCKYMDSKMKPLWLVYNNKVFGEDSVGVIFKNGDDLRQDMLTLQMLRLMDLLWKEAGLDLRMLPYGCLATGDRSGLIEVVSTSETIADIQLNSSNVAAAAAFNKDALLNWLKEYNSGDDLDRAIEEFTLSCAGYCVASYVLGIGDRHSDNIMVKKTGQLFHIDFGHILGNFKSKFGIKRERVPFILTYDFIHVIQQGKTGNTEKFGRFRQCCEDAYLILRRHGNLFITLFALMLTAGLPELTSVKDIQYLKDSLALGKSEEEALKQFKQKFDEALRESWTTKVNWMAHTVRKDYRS
Sequence of p110β/p85α (P27986 2-724 partner): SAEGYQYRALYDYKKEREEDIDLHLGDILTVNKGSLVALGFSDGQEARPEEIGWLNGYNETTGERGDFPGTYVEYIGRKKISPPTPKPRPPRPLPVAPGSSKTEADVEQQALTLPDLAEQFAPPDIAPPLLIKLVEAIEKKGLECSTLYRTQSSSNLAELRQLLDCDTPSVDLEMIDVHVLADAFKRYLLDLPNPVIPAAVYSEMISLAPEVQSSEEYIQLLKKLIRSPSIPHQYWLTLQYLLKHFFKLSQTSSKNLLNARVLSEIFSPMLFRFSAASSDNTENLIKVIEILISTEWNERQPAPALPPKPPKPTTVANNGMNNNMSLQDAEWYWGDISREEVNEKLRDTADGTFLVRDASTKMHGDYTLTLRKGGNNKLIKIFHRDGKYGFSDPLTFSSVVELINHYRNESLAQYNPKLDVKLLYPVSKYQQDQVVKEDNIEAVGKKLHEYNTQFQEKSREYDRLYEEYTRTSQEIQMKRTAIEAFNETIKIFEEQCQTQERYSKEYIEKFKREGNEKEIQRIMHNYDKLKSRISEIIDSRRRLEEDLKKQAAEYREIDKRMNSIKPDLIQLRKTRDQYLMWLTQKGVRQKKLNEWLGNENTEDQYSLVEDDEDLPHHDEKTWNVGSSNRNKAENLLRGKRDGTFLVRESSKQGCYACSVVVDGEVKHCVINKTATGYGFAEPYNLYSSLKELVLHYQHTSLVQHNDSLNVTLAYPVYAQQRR

Compound	PI3Kβ IH % @ 1 uM (p110β/p85α) [%]	IC50 (p110β/p85α) [nM]	PI3Kγ IH % @ 1 uM (p110γ) [%]	PI3Kδ IH % @ 1 uM (p110δ/p85α) [%]	IC50 (p110δ/p85α) [nM]	IC50 (p110γ) [nM]
CC(=O)c1c[nH]c2ncnc(N3CCC[C@H]3c3nn4ccc(Cl)c4c(=O)n3-c3cccc(F)c3)c12 [Compound 210]	69.1	191	92.0	98.6	2	–
CC(=O)c1c[nH]c2ncnc(N3CCC[C@H]3c3nn4ccc(Cl)c4c(=O)n3-c3ccccc3)c12 [Compound 211]	88.3	51	92.2	98.4	0.5	–
N#Cc1cnc(N)nc1N1CC[C@H]1c1nn2ccc(Cl)c2c(=O)n1-c1ccccc1 [Compound 212]	37.0	–	>100	95.3	12	–
Nc1ncc(F)c(N2CCC[C@H]2c2nn3ccc(Cl)c3c(=O)n2-c2ccccc2)n1 [Compound 215]	32.8	–	88.1	98.5	52	135
O=c1c2c(Cl)ccn2nc([C@@H]2CCCN2c2ncnc3[nH]nnc23)n1-c1ccccc1 [Compound 220]	25.1	–	54.8	84.8	242	–
CSc1n[nH]c2ncnc(N3CCC[C@H]3c3nn4ccc(Cl)c4c(=O)n3-c3ccccc3)c12 [Compound 221]	16.3	–	88.6	68.0	–	24
CSc1n[nH]c2ncnc(N3CC[C@H]3c3nn4ccc(Cl)c4c(=O)n3-c3ccccc3)c12 [Compound 222]	40.5	–	88.1	43.0	–	21
C#Cc1cnc(N)nc1N1CC[C@H]1c1nn2ccc(Cl)c2c(=O)n1-c1ccccc1 [Compound 224]	22.7	–	>100	85.9	60	–
N#Cc1c[nH]c2ncnc(N3C[C@@H](F)C[C@H]3c3nn4ccc(F)c4c(=O)n3-c3ccccc3)c12 [Compound 225]	96.3	54	>100	>100	1	5
N#Cc1cnc(N)nc1N1C[C@@H](F)C[C@H]1c1nn2ccc(Cl)c2c(=O)n1-c1ccccc1 [Compound 229]	81.5	262	90.4	97.6	3	2
N#Cc1cnc(N)nc1N1CCC[C@H]1c1nn2ccc(F)c2c(=O)n1-c1ccccc1 [Compound 230]	75.2	280	87.3	>100	3	7
N#Cc1cnc(N)nc1N1CCC[C@H]1c1nn2ccc(Cl)c2c(=O)n1-c1ccc(F)cc1 [Compound 231]	80.5	197	96.8	98.1	9	4
C[C@H]1CCN(c2nc(N)ncc2C#N)C1c1nn2ccc(Cl)c2c(=O)n1-c1ccccc1 (stereo partly drawn) [Compound 236]	79.8	–	94.9	>100	–	–
C[C@H]1CN(c2ncnc3[nH]cnc23)C1c1nn2ccc(Cl)c2c(=O)n1-c1ccccc1 (stereo partly drawn) [Compound 237]	37.6	–	86.3	>100	14	35
C#Cc1cnc(N)nc1N1CCC[C@H]1c1nn2ccc(Cl)c2c(=O)n1-c1ccccc1 [Compound 238]	33.8	–	>100	>100	14	18
Cc1nc(N2CCC[C@H]2c2nn3ccc(F)c3c(=O)n2-c2ccccc2)c2nc[nH]c2n1 [Compound 239]	59.8	–	>100	98.7	18	75
Nc1ncc([N+](=O)[O-])c(N2CCC[C@H]2c2nn3ccc(Cl)c3c(=O)n2-c2ccccc2)n1 [Compound 240]	45.0	–	>100	98.1	34	36
Nc1nc2c(c(N3CC[C@H]3c3nn4ccc(Cl)c4c(=O)n3-c3ccccc3)n1)C(=O)CCN2 [Compound 241]	31.9	–	98.7	95.3	32	14
Nc1nc2c(c(N3CCC[C@H]3c3nn4ccc(Cl)c4c(=O)n3-c3ccccc3)n1)C(=O)CCN2 [Compound 242]	46.5	–	98.9	96.8	10	19
Nc1nc2c(c(N3CCC[C@H]3c3nn4ccc(Br)c4c(=O)n3-c3ccccc3)n1)CCC2 [Compound 245]	38.4	–	77.5	78.0	341	337
Nc1nc2c(c(N3CC[C@H]3c3nn4ccc(Cl)c4c(=O)n3-c3ccccc3)n1)CCC2 [Compound 247]	4.8	–	73.0	53.0	–	–
Nc1nc2c(c(N3CC[C@H]3c3nn4ccc(F)c4c(=O)n3-c3ccccc3)n1)C(=O)CCN2 [Compound 248]	−10.7	–	98.0	96.2	9	9

Further lines, results first:

PI3Kβ IH % @ 1 uM (p110β/p85α) [%]	IC50 (p110β/p85α) [nM]	PI3Kγ IH % @ 1 uM (p110γ) [%]	PI3Kδ IH % @ 1 uM (p110δ/p85α) [%]	IC50 (p110δ/p85α) [nM]	IC50 (p110γ) [nM]	Compound
65.7	271	>100	99.7	1	12	O=c1c2c(Cl)ccn2nc([C@@H]2C[C@H](F)CN2c2ncnc3[nH]cnc23)n1-c1cccc(F)c1 [Compound 214]
65.1	–	91.8	96.5	2	3	CC(=O)c1c[nH]c2ncnc(N3C[C@@H](F)C[C@H]3c3nn4ccc(Cl)c4c(=O)n3-c3cccc(F)c3)c12 [Compound 216]
85.0	165	95.7	97.3	2	–	CC(=O)c1c[nH]c2ncnc(N3CCC[C@H]3c3nn4ccc(F)c4c(=O)n3-c3ccccc3)c12 [Compound 218]
75.1	358	87.4	98.4	3	14	C[S+]([O-])c1c[nH]c2ncnc(N3CCC[C@H]3c3nn4ccc(F)c4c(=O)n3-c3ccccc3)c12 (stereo partly drawn) [Compound 219]
22.9	–	71.6	81.0	59	–	Nc1ncc(Cl)c(N2CC[C@H]2c2nn3ccc(Cl)c3c(=O)n2-c2ccccc2)n1 [Compound 223]
41.8	–	>100	98.7	9	30	COCCNC(=O)c1c[nH]c2ncnc(N3CCC[C@H]3c3nn4ccc(Cl)c4c(=O)n3-c3ccccc3)c12 [Compound 226]
59.6	–	>100	>100	5	18	N#Cc1cnc(N)nc1N1C[C@@H](F)C[C@H]1c1nn2ccc(F)c2c(=O)n1-c1ccccc1 [Compound 227]
13.8	–	59.9	74.6	176	–	COCCNC(=O)c1c[nH]c2ncnc(N3CC[C@H]3c3nn4ccc(Cl)c4c(=O)n3-c3ccccc3)c12 [Compound 228]
63.4	–	>100	>100	6	14	N#Cc1cnc(N)nc1N1CCC[C@H]1c1nn2ccc(Cl)c2c(=O)n1-c1cccc(F)c1 [Compound 232]
>100	–	>100	>100	–	–	C[C@H]1CCN(c2ncnc3[nH]cc(C#N)c23)C1c1nn2ccc(Cl)c2c(=O)n1-c1ccccc1 (stereo partly drawn) [Compound 233]
83.4	–	>100	>100	–	–	C[C@H]1CCN(c2ncnc3[nH]cnc23)C1c1nn2ccc(Cl)c2c(=O)n1-c1ccccc1 (stereo partly drawn) [Compound 234]
58.4	–	92.7	99.8	4	30	C[C@H]1CN(c2ncnc3[nH]cc(C#N)c23)[C@@H]1c1nn2ccc(F)c2c(=O)n1-c1ccccc1 [Compound 244]
2.5	–	80.8	84.6	562	696	Nc1nc2c(c(N3CCC[C@H]3c3nn4ccc(Cl)c4c(=O)n3-c3ccccc3)n1)CCC2 [Compound 246]
24.8	–	98.0	99.3	8	29	Nc1nc2c(c(N3CCC[C@H]3c3nn4ccc(F)c4c(=O)n3-c3ccccc3)n1)C(=O)CCN2 [Compound 249]

From patent publication US20150307520A1, “NOVEL HETEROARYL AND HETEROCYCLE COMPOUNDS, COMPOSITIONS AND METHODS THEREOF” (HUTCHISON MEDIPHARMA LIMITED, priority 2012, published 2015)
